Source: paper PMC7157554, “Anti-Trypanosomal Proteasome Inhibitors Cure Hemolymphatic and Meningoencephalic Murine Infection Models of African Trypanosomiasis” (Tropical Medicine and Infectious Disease, 2020)
Read-outs that look alike come from different tables or passages of the source.

Key:
[1] = test system: T. b. gambiense; test: Growth inhibition of T. b. gambiense strains; format: cell-based; conditions: Trypanosoma brucei, mean ± SD, read-out: T. b. gambiense EC50
[2] = test system: T. b. brucei; test: Growth inhibition of T. b. brucei strains BS221, BS221 (P2 KO), STIB950; format: cell-based; conditions: Trypanosoma brucei, mean ± SD, read-out: T. b. brucei EC50
Protocol: The T. b. brucei strain Lister 427 (bloodstream form) parasites were continuously grown in complete HMI-9 medium supplemented with 10% Serum Plus and 10% heat-inactivated fetal bovine serum (FBS). All other parasite strains were cultured as described elsewhere.
For determination of 50% growth inhibition, all compounds were dissolved in DMSO, and 200 nL of threefold serially diluted compounds were added into solid-bottom 384-well white plates (Greiner Bio-One, Kremsmunster, Austria) by an Echo 555 acoustic liquid-handling system. Forty microliters of 10^4 cells/mL of T. b. brucei parasites was added into each well, and the plates were incubated in a 5% CO2 incubator at 37 °C for 48 h. Viability of parasites were determined by measuring intracellular ATP levels, using CellTiter-Glo (CTG) luminescent cell viability reagent (Promega, Madison, Wisconsin WI, USA). The EC50 values were determined by using GraphPad Prism software. Growth inhibition assays for all clinical isolates were carried out as described earlier. All experiments had two technical replicates and three biological replicates. […]

[3] = test system: T. b. rhodesiense; test: Growth inhibition of T. b. rhodesiense strains; format: cell-based; conditions: Trypanosoma brucei, mean ± SD, read-out: T. b. rhodesiense EC50
[4] = test system: T. brucei PSMB4^WT; test: Growth inhibition of T. brucei expressing wild-type 20S proteasome β4 subunit; format: cell-based; conditions: Trypanosoma brucei, read-out: T. brucei PSMB4^WT EC50
Protocol: (§1) For determination of 50% growth inhibition, all compounds were dissolved in DMSO, and 200 nL of threefold serially diluted compounds were added into solid-bottom 384-well white plates (Greiner Bio-One, Kremsmunster, Austria) by an Echo 555 acoustic liquid-handling system. Forty microliters of 10^4 cells/mL of T. b. brucei parasites was added into each well, and the plates were incubated in a 5% CO2 incubator at 37 °C for 48 h. Viability of parasites were determined by measuring intracellular ATP levels, using CellTiter-Glo (CTG) luminescent cell viability reagent (Promega, Madison, Wisconsin WI, USA). The EC50 values were determined by using GraphPad Prism software. Growth inhibition assays for all clinical isolates were carried out as described earlier. All experiments had two technical replicates and three biological replicates. Appropriate statistical tests were used for evaluating significance, and mean ± SEM is represented in the tables.

[5] = Per oral pharmacokinetics in mouse; format: in vivo; conditions: for AUC / Cmax: total
Protocol: Determination of intravenous (i.v.) and per oral (p.o.) pharmacokinetics (PK) were carried out by using male BALB/c mice. For i.v. PK studies, compounds were formulated at a concentration of 2.5 mg/mL in 75% PEG300 and 25% D5W (5% dextrose in distilled water). To avoid any granular material, the solution was filtered, using a 0.45 μm syringe filter. The filtered solutions were dosed intravenously to mice via the lateral tail vein, at 5 mg/kg, with a dosing volume of 2 mL/kg. For all the p.o. PK studies, compounds were resuspended in 0.5% v/v methyl cellulose in 0.5 % v/v tween 80 solution. For 20 mg/kg dosing, 200 µL of compounds was administered orally to mice. Six blood samples of 50 μL each were collected serially from each animal, up to 24 h after dosing. Blood samples were collected into heparin microtainers and centrifuged, and then plasma was separated and frozen until analysis. Plasma samples (20 μL) were extracted with acetonitrile:methanol (3:1) containing internal standard. The samples were vortexed and then centrifuged in an Eppendorf centrifuge 5810R, at a setting of 4000 rpm, for 5 min, at 4 °C. The supernatant was transferred to a 96-well analysis plate and analyzed, using optimized LC/MS/MS conditions. For every experiment, 3 mice were used per compound, per dose. The plasma concentration-time profile was obtained by plotting the mean value from the three animals at each time point. Various PK parameters, such as Cmax (maximum concentration), area under curve (AUC) and oral bioavailability (F) for compounds, were calculated by non-compartmental regression analysis, using an in-house fitting program developed at GNF [8]. All the in-life studies were carried out under protocols approved by the Animal Care and Use Committee (IACUC), following animal ethics guidelines of GNF.

[6] = HepG2 cytotoxicity assay (CCK-8, 96 h); format: cell-based, human; conditions: human, HepG2 cells, mean ± SEM
Protocol: The HepG2 (human hepatocellular carcinoma) cells were obtained from ATCC (American Type Culture Collection) and grown in RPMI media. Cytotoxicity assay was performed in 384-well format, and 25 µL, approximately 1.6 × 10^4 cells/mL, suspension was added to clear-bottom 384-well Griener plates and incubated in 5% CO2 incubator, at 37 °C for 24 h. Once the cells adhered, 125 nL of threefold serially diluted compounds in DMSO was added. Plates were incubated for 96 h, at 37 °C, in a 5% CO2 incubator. Plates were read for viability by adding 10 µL of CCK-8 reagent (APExBIO) into each well, followed by 3 h incubation and absorbance reading at […], using an Envision plate reader. […] Puromycin was used as a positive control. All experiments had two technical replicates and three biological replicates. Appropriate statistical tests were used for evaluating significance, and mean ± SEM is represented in the tables.

[7] = test system: T. brucei PSMB4^F24L; test: Growth inhibition of T. brucei expressing F24L mutant 20S proteasome β4 subunit; format: cell-based, Trypanosoma brucei; conditions: Trypanosoma brucei, read-out: T. brucei PSMB4^F24L EC50
Protocol: as §1

[8] = test system: MDR1 (Pgp); test: in vitro; conditions: dog, MDCK-MDR1
Protocol: In order to evaluate potential of brain permeability, all three compounds were tested in an MDR1-MDCK permeability assay. […] Those that have a high efflux ratio are generally substrates for Pgp transporters, thereby having a higher propensity to be excluded from the brain. […] To assess directly the TP compounds’ ability to penetrate brain, mice were dosed with compound, and plasma and brains were collected after 5 and 60 min following intravenous dosing.

[9] = GAMBIENSE / STIB930, strain STIB930
[10] = RHODESIENSE / STIB900, strain STIB900
[11] = RHODESIENSE / STIB900, strain STIB900 Mel^R (melarsoprol-resistant)
[12] = RHODESIENSE / STIB900, strain STIB900 Pent^R (pentamidine-resistant)
[13] = male, BALB/c, plasma, po, p.o. 20 mg/kg, 0 to infinity
[14] = male, BALB/c, plasma, po, p.o. 20 mg/kg

| SMILES | EC50 [1, 9] | EC50 ([1]; GAMBIENSE, strain K048) | EC50 ([1]; GAMBIENSE, strain R130) | EC50 ([2]; STIB950, strain STIB950) | EC50 ([2]; strain BS221 (P2 KO)) | EC50 ([2]; strain BS221) | EC50 [3, 10] | EC50 [3, 11] | EC50 [3, 12] | EC50 [4] | AUC [5, 13] | bioavailability ([5]; male, BALB/c, plasma, po, p.o. 20 mg/kg, read-out: F (oral bioavailability)) | Cmax [5, 14] | Tmax ([5]; p.o. 20 mg/kg) | Cmax, free fraction (value in parenthesis) ([5]; p.o. 20 mg/kg, free) | CC50 at 96 h [6] | EC50 [7] | efflux ratio [8] | Exposure, fold less than GNF6702 ([5]; oral) | AUC, free fraction (value in parenthesis) ([5]; p.o. 20 mg/kg, 0 to infinity, free) |
| --- | --- | --- | --- | --- | --- | --- | --- | --- | --- | --- | --- | --- | --- | --- | --- | --- | --- | --- | --- | --- |
| Cc1nc(C)c(C(=O)Nc2ccc(F)c(-c3nc4ncc(-c5ccccn5)cn4n3)c2)o1 [GNF6702] | 3.7 ± 2 nM | 3.5 ± 1.4 nM | 2.3 ± 1.1 nM | 1.2 ± 0.5 nM | 3.5 ± 1.2 nM | 0.9 ± 0.3 nM | 1.6 ± 0.9 nM | 0.7 ± 0.2 nM | 1.2 ± 0.3 nM | – | – | – | – | – | – | – | – | – | – | – |
| Cc1nc(C)c(C(=O)Nc2ccc(F)c(-c3nc4ncc(C(C)(C)C)cn4n3)c2)o1 [NITD689] | – | – | – | – | – | – | – | – | – | 20 ± 4 nM | 89.7 µM·h | 100% | 12.2 µM | 0.5 H | 1.1562 µM | > 20000 nM | 1900 ± 20 nM | 0.9 | – | – |
| Cc1nc(C)c(C(=O)Nc2ccc(F)c(-c3nc4ncc(-c5ccccc5)cn4n3)c2)o1 [GNF3849] | 4.5 ± 1 nM | 4.8 ± 1.1 nM | 1.9 ± 1 nM | 0.9 ± 0.2 nM | 4 ± 2.5 nM | 1.9 ± 0.8 nM | 1.4 ± 1 nM | 0.6 nM | 1.7 ± 1 nM | 10 ± 3 nM | 108 µM·h | – | 7.16 µM | 3 H | < 0.0716 µM | 1100 ± 200 nM | 2200 ± 20 nM | 3.2 | ~ 2.5 fold | < 1.0751 µM·h |
